{
  "source": "patent EP0168658A1",
  "about": "“Pyrrolecarboxylic acid derivative having analgesic activity, preparation thereof and compositions therefrom” (POLI INDUSTRIA CHIMICA S.p.A., priority 1984, dated 1986)",
  "key": {"[1]": {"system": "Male albino mice", "test": "Hot-plate test (plate at 55°C), analgesic activity by the oral route", "format": "in vivo, mouse", "details": "read-out: Hot place EX50", "protocol": "(§1) The analgesic activity of the compound of formula I by the oral route, has been determined in the mouse using the following tests: • - Phenylquinone test (Hendershot and Forsaith - J. Pharma- col. Exptl. Ther. 123, 237 (1959)); • - Hot-plate test. Male albino mice, treated with increasing doses of the compound under exam, are placed on a plate thermostatized at 55°C. An effective dose 50 (ED50) is defined as the dose inducing a 50% increase of the reaction time to the pain stimulus."}, "[2]": {"system": "mouse", "test": "Phenylquinone test, analgesic activity by the oral route", "format": "in vivo", "protocol": "as §1"}, "[3]": {"system": "cyclooxygenase", "test": "Cyclooxygenase inhibitory activity", "format": "biochemical"}, "[4]": {"system": "mouse", "test": "Jumping by nalorphine (physical addiction)", "format": "in vivo"}, "[5]": {"system": "prostaglandine-synthetase", "test": "Prostaglandine-synthetase inhibitory activity", "format": "biochemical"}, "[6]": {"test": "Acute toxicity per os", "details": "in vivo, po, mouse, at the 14th observation day", "description": "The acute toxicity per os is expressed as LD50 at the 14th observation day."}, "[7]": {"system": "cyclooxygenase", "details": "background statement on the known drug; cited from earlier work"}, "[8]": {"system": "prostaglandine-synthetase", "details": "background statement on the known drug; cited from earlier work"}},
  "note": "Like-named read-outs stand apart in the source and are kept apart here.",
  "data": [
    {"smiles": "COc1ccc2c3c1O[C@H]1[C@@H](O)C=C[C@H]4[C@@H](C2)N(C)CC[C@@]341.Cl", "note": "[Codeine HCl, codeine hydrochloride, reference compound]", "values": [
      {"measurement": "ED50", "setting": "[1]; Mus musculus, po", "value": 25, "unit": "mg/kg"},
      {"measurement": "ED50", "setting": "[2]", "value": 5.6, "unit": "mg/kg"}
    ]},
    {"smiles": "Cc1c(C(=O)O)c(C)n(C)c1C(=O)c1ccc(F)cc1", "note": "[Compound I, 5-(4-fluoro-benzoyl)-1,2,4-trimethyl-3-pyrrolcarboxylic acid]", "values": [
      {"measurement": "ED50", "setting": "[1]; mouse, oral route, plate at 55°C, dose inducing a 50% increase of the reaction time to the pain stimulus", "value": 3.5, "unit": "mg/kg"},
      {"measurement": "cyclooxygenase inhibitory activity", "setting": "[3]", "value": "without cyclooxygenase and prostaglandine-synthetase inhibitory activity"},
      {"measurement": "ED50", "setting": "[2]", "value": 2.1, "unit": "mg/kg"},
      {"measurement": "jumping by nalorphine", "setting": "[4]", "value": "does not induce"},
      {"measurement": "prostaglandine-synthetase inhibitory activity", "setting": "[5]", "value": "without cyclooxygenase and prostaglandine-synthetase inhibitory activity"},
      {"measurement": "LD50 at 336 h", "setting": "[6]", "value": "> 1600", "unit": "mg/kg"}
    ]},
    {"smiles": "Cc1cc(CC(=O)O)n(C)c1C(=O)c1ccc(Cl)cc1", "note": "[zomepirac, 5-(p-chlorobenzoyl)-l,4-dimethylpyrrole-2-acetic acid]", "values": [
      {"measurement": "capacity of inhibiting cyclooxygenase", "setting": "[7]", "value": "capacity of inhibiting the enzymes cyclooxygenase and prostaglandine-synthetase"},
      {"measurement": "capacity of inhibiting prostaglandine-synthetase", "setting": "[8]", "value": "capacity of inhibiting the enzymes cyclooxygenase and prostaglandine-synthetase"}
    ]}
  ]
}
